Data published in US20240180883A1, “TREATMENT OF MIGRAINE” (Allergan Pharmaceuticals International Limited, priority 2020, published 2024).
“And” between values parts separate entries of the source, which are not always exact repeats. Equal values may be shown once.

Assays:
[1] = test system: adults with migraine; experiment: Consistency of treatment, ACHIEVE trials and long-term extension trial; assay type: in vivo, human
Method: Therapeutic gain (TG) was calculated for the ACHIEVE trial and separately for the first 3 attacks of moderate/severe pain intensity treated in the long term extension trial, using placebo data from ACHIEVE. The TG ratio (TGR) was the TG from the LTE divided by the TG in the ACHIEVE trial multiplied by 100. Following consultation with regulatory agencies, a consistency threshold for the TGR of 50% or greater was used for this analysis.

[2] = Ubrogepant clinical pharmacokinetics summary; assay type: in vivo, human
Method: Ubrogepant is excreted mainly through the biliary/fecal route, while the renal route is a minor route of elimination.
In clinical studies, ubrogepant was administered without regard to food. […]

[3] = test system: plasma protein; experiment: Plasma protein binding by equilibrium dialysis (hepatic impairment study); assay type: in vitro ADME, human
Method: Sampling was also done at the following times for plasma protein binding determinations: Day 1 at 0 hour (predose) and 2 hours post dose.
Protein binding blood samples were collected from all participants starting on Day 1 at 0 hour (predose) and at 2 hours post-dose. The pre-dose samples collected prior to dosing for each participants were spiked with known quantities of ubrogepant.

[4] = Hepatic impairment study: adverse events; assay type: in vivo, human
Source text: Participants were queried regarding any AEs or SAEs at the time of each vital sign assessment, as well as at each visit through to the follow-up visit.
Criteria for potential Hy's Law cases were as follows: AST or ALT≥3×ULN and Total Bilirubin≥2×ULN and Alkaline phosphatase<2×ULN.

[5] = test system: adult patients with migraine; experiment: Phase 3 Study 2 (NCT02867709) migraine efficacy; assay type: in vivo, human; settings: Study 2, 50 mg
Source text: (§1) In two randomized, double-blind, placebo-controlled, Ph. […] Of the ubrogepant-treated patients in these two studies, approximately 89% were female, 82% were white, 15% were Black, and 17% were of Hispanic or Latino ethnicity. The mean age at study entry was 41 years (range of 18-75 years).
(§2) In all studies, patients were instructed to treat a migraine with moderate to severe headache pain intensity. […] Up to 23% of patients were taking preventive medications for migraine at baseline. None of these patients were on concomitant preventive medication that act on the CGRP pathway.
(§3) The primary efficacy analyses were conducted in patients who treated a migraine with moderate to severe pain. […] Pain freedom was defined as a reduction of moderate or severe headache pain to no pain, and MBS freedom was defined as the absence of the self-identified MBS (i.e., photophobia, phonophobia, or nausea). Among patients who selected an MBS, the most commonly selected was photophobia (56%), followed by phonophobia (24%) and nausea (19%).
(§4) Table 14 also presents the results of the analyses of the percentage of patients achieving pain relief at 2 hours (defined as a reduction in migraine pain from moderate or severe to mild or none) post-dose and the percentage of patients achieving sustained pain freedom between 2 to 24 hours post-dose.

[6] = test system: adult patients with migraine; experiment: Phase 3 Study 1 (NCT02828020) migraine efficacy; assay type: in vivo, human
Source text: as §1, §2, §3, §4

[7] = single dose [14C]-ubrogepant, healthy male subjects
[8] = 100 mg single oral dose, all 28 participants
[9] = 100 mg single oral dose, mild hepatic impairment
[10] = 100 mg single oral dose, moderate hepatic impairment
[11] = 100 mg single oral dose, normal hepatic function
[12] = 100 mg single oral dose, severe hepatic impairment

## C[C@@H]1[C@H](c2ccccc2)C[C@H](NC(=O)c2cnc3c(c2)C[C@@]2(C3)C(=O)Nc3ncccc32)C(=O)N1CC(F)(F)F [ubrogepant, (3′S)-N-((3S,5S,6R)-6-methyl-2-oxo-5-phenyl-1-(2,2,2-trifluoroethyl)piperidin-3-yl)-2′-oxo-1′,2′,5,7-etrahydrospiro[cyclopenta[b]pyridine-6,3′-pyrrolo[2,3-b]pyridine]-3-carboxamide]
[1]; ACHIEVE ubrogepant 100 mg treated attacks
  rate of 2-hour pain relief: 61.4%
[1]; ACHIEVE ubrogepant 100 mg-treated attacks
  rate of 2 hour pain freedom: 21.2%
[1]; LTE trial, 100 mg, mean across first 3 attacks
  rate of 2 hour pain freedom: 21.6%
[1]; LTE trial, 100 mg, mean across first three attacks
  rate of 2-hour pain relief: 68.0%
[2]; human, in vivo
  renal route elimination: < 10%
[2]; human, in vivo, po
  mean apparent oral clearance (CL/F): approximately 87 L/hr
[2]; human, plasma, oral, read-out: elimination half-life
  half-life: 5 to 7 h
[2]; oral administration
  time of peak plasma concentrations: approximately 1.5 hours
[2]; [7]
  dose recovered as unchanged ubrogepant in feces: 42%
  dose recovered as unchanged ubrogepant in urine: 6%
[2]; single dose oral administration
  mean apparent central volume of distribution (V/L): approximately 350 L
[2]; with a high-fat meal
  change in AUC: no change in AUC
  delay of time to maximum plasma concentration: 2 h
  reduction in Cmax: 22%
[3]; 0 hr (predose sample spiked with ubrogepant), mild-impaired
  percentage of protein-bound ubrogepant: 88.87 ± 1.12%
[3]; 0 hr (predose sample spiked with ubrogepant), moderate-impaired
  percentage of protein-bound ubrogepant: 87.42 ± 1.89%
[3]; 0 hr (predose sample spiked with ubrogepant), normal hepatic function
  percentage of protein-bound ubrogepant: 88.52 ± 0.84%
[3]; 0 hr (predose sample spiked with ubrogepant), severe-impaired
  percentage of protein-bound ubrogepant: 84.58 ± 0.91%
[3]; 2 hr post-dose, 100 mg, mild-impaired
  percentage of protein-bound ubrogepant: 89.9% and 89.85 ± 1.33%
[3]; 2 hr post-dose, 100 mg, moderate-impaired
  percentage of protein-bound ubrogepant: 88.2% and 88.24 ± 1.02%
[3]; 2 hr post-dose, 100 mg, normal hepatic function
  percentage of protein-bound ubrogepant: 89.3% and 89.28 ± 1.54%
[3]; 2 hr post-dose, 100 mg, severe-impaired
  percentage of protein-bound ubrogepant: 85.3% and 85.27 ± 0.94%
[4]; 100 mg single oral dose
  changes in laboratory parameters, vital signs, or ECG measurements: no clinically relevant changes in laboratory parameters, vital signs, or ECG measurements
[4]; [8]
  participants with TEAEs, overall: 17.9%
  participants with headache, overall: 2 participants
[4]; [9]
  AE leading to study discontinuation: 0 n (%)
  Any SAE: 0 n (%)
  Any TEAE: 3 (37.5) n (%)
  Any treatment-related TEAE: 2 (25.0) n (%)
  Deaths: 0 n (%)
  Diarrhoea: 1 (12.5) n (%)
  Dizziness: 0 n (%)
  Dyspepsia: 1 (12.5) n (%)
  Gastrointestinal Disorders: 2 (25.0) n (%)
  Headache: 1 (12.5) n (%)
  Nervous System Disorders: 1 (12.5) n (%)
[4]; [10]
  AE leading to study discontinuation: 0 n (%)
  Any SAE: 0 n (%)
  Any TEAE: 2 (25.0) n (%)
  Any treatment-related TEAE: 2 (25.0) n (%)
  Deaths: 0 n (%)
  Diarrhoea: 0 n (%)
  Dizziness: 1 (12.5) n (%)
  Dyspepsia: 0 n (%)
  Gastrointestinal Disorders: 0 n (%)
  Headache: 1 (12.5) n (%)
  Nervous System Disorders: 2 (25.0) n (%)
[4]; [11]
  AE leading to study discontinuation: 0 n (%)
  Any SAE: 0 n (%)
  Any TEAE: 0 n (%)
  Any treatment-related TEAE: 0 n (%)
  Deaths: 0 n (%)
  Diarrhoea: 0 n (%)
  Dizziness: 0 n (%)
  Dyspepsia: 0 n (%)
  Gastrointestinal Disorders: 0 n (%)
  Headache: 0 n (%)
  Nervous System Disorders: 0 n (%)
[4]; [12]
  AE leading to study discontinuation: 0 n (%)
  Any SAE: 0 n (%)
  Any TEAE: 0 n (%)
  Any treatment-related TEAE: 0 n (%)
  Deaths: 0 n (%)
  Diarrhoea: 0 n (%)
  Dizziness: 0 n (%)
  Dyspepsia: 0 n (%)
  Gastrointestinal Disorders: 0 n (%)
  Headache: 0 n (%)
  Nervous System Disorders: 0 n (%)
[4]; healthy participants and participants with mild to severe hepatic impairment
  tolerability: well-tolerated
[5]
  Most Bothersome Symptom Free at 2 hours, % Responders: 38.9%
  Most Bothersome Symptom Free at 2 hours, Difference from Placebo: 11.5%
  Pain Relief at 2 hours, % Responders: 62.7%
  Pain free at 2 hours, % Responders: 21.8%
  Pain free at 2 hours, Difference from Placebo: 7.5%
  Sustained pain freedom at 2-24 hours, % Responders: 14.4%
[6]; Study 1, 50 mg
  Most Bothersome Symptom Free at 2 hours, % Responders: 38.6%
  Most Bothersome Symptom Free at 2 hours, Difference from Placebo: 10.8%
  Pain Relief at 2 hours, % Responders: 60.7%
  Pain free at 2 hours, % Responders: 19.2%
  Pain free at 2 hours, Difference from Placebo: 7.4%
  Sustained pain freedom at 2-24 hours, % Responders: 12.7%
[6]; Study 1, 100 mg
  Most Bothersome Symptom Free at 2 hours, % Responders: 37.7%
  Most Bothersome Symptom Free at 2 hours, Difference from Placebo: 9.9%
  Pain Relief at 2 hours, % Responders: 61.4%
  Pain free at 2 hours, % Responders: 21.2%
  Pain free at 2 hours, Difference from Placebo: 9.4%
  Sustained pain freedom at 2-24 hours, % Responders: 15.4%
[6]; both doses (50 and 100 mg)
  incidence of photophobia and phonophobia compared to placebo: reduced
